Data reported in US9227979B2, “Fluorescent antagonists of the A3 adenosine receptor” (The United States of America, as represented by the …, priority 2012, dated 2016).
Like-named read-outs stand apart in the source and are kept apart here.

Assays:
hA2AAR = hA2AAR (Homo sapiens (Human), UniProt P29274); assay: Radioligand membrane binding assay at hA2A AR ([3H]CGS21680); details: for Ki: read-out: A2A Ki
Description: (§1) For cell cultures used in radioligand binding assays, after harvest and homogenization, the cells were centrifuged at 200×g for 10 min, and the pellet was re-suspended in 50 mM Tris-HCl buffer (pH 7.5), containing 10 mM MgCl2. The suspension was homogenized with an electric homogenizer for 10 s and was then re-centrifuged at 20,000×g for 20 min at 4° C. The resultant membrane pellets were resuspended in buffer in the presence of 3 units/ml adenosine deaminase, and the suspension was stored at −80° C. until the binding experiments. The protein concentration was measured using the Bradford assay. Radioligand membrane binding assays

hA1 AR = hA1 AR (Homo sapiens (Human), UniProt P30542); assay: Radioligand membrane binding assay at hA1 AR ([3H]R-PIA); details: for Ki: CHO cells expressing hA1AR, agonist radioligand [3H]R-PIA, read-out: A1 Ki
Chain of hA1 AR (P30542 whole entry): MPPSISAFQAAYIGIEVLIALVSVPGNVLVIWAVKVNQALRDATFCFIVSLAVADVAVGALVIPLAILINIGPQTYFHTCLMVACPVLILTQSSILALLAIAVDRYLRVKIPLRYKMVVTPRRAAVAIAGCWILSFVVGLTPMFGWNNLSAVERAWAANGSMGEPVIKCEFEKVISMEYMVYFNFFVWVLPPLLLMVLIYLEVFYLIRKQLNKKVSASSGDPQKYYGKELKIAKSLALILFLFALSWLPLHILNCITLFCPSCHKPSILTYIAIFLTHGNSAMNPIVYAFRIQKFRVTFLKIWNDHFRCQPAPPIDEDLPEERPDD
Description: as §1

hA3AR = hA3AR (Homo sapiens (Human), UniProt P0DMS8); assay: Radioligand membrane binding assay at hA3AR ([125I]I-AB-MECA); details: read-out: A3 Ki
Chain of hA3AR (P0DMS8 whole entry): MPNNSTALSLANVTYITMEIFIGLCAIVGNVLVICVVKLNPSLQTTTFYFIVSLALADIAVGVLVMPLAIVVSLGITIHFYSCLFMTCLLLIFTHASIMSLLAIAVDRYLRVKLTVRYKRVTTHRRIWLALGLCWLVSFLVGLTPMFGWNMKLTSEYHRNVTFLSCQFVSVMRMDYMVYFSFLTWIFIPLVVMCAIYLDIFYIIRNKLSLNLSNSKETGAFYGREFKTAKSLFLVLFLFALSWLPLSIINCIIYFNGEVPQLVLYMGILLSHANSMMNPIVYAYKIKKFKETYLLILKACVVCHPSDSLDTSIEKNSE
Description: as §1

[1] = Table 1, HEK293 cells expressing hA2AAR, [3H]CGS21680
[2] = Table 1, CHO cells expressing hA3AR, [125I]I-AB-MECA
[3] = Table 1, inhibition of radioligand binding at 10 μM

Chain of hA2AAR (P29274 whole entry): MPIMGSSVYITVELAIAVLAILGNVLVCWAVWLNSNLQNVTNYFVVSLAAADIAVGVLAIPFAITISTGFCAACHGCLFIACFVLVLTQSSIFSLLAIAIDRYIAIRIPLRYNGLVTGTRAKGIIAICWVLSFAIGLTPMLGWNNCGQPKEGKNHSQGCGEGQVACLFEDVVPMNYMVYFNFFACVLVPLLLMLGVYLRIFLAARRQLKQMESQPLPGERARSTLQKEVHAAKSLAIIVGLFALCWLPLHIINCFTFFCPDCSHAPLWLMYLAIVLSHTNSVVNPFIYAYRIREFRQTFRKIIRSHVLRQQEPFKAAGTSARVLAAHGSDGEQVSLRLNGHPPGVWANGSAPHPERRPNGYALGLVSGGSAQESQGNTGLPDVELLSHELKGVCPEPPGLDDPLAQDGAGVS

| Structure (SMILES) | Ki (hA2AAR; [1]) [nM] | Ki (hA1 AR; Table 1) [nM] | Ki (hA3AR; [2]) [nM] | A1 % inhibition (hA1 AR; [3]) | Ki (hA2AAR; Table 3) [nM] | Ki (hA3AR; Table 3) [nM] | A1 % inhibition (hA1 AR; Table 3) | A2A % Inhibition (hA2AAR; [3]) | melting point |
| --- | --- | --- | --- | --- | --- | --- | --- | --- | --- |
| Cn1cc2c(nc(NNC(=S)Nc3ccc(-c4c5ccc(=O)cc-5oc5cc(O)ccc45)c(C(=O)O)c3)n3nc(-c4ccco4)nc23)n1 [Compound 1] | 920 ± 110 | 9500 | 780 | – | – | – | – | – | – |
| Cn1cc2c(nc(NCCCNC(=S)Nc3ccc(-c4c5ccc(=O)cc-5oc5cc(O)ccc45)c(C(=O)O)c3)n3nc(-c4ccco4)nc23)n1 [Compound 2] | 2480 ± 420 | – | 2390 ± 660 | (5 ± 2%) | – | – | – | – | – |
| Cn1cc2c(nc(NCCCCNC(=S)Nc3ccc(-c4c5ccc(=O)cc-5oc5cc(O)ccc45)c(C(=O)O)c3)n3nc(-c4ccco4)nc23)n1 [Compound 3] | 460 ± 60 | – | 720 | (7 ± 5%) | – | – | – | – | – |
| Cn1cc2c(nc(NCCCCCNC(=S)Nc3ccc(-c4c5ccc(=O)cc-5oc5cc(O)ccc45)c(C(=O)O)c3)n3nc(-c4ccco4)nc23)n1 [Compound 4] | 1750 ± 470 | – | 5660 ± 610 | (9 ± 5%) | – | – | – | – | – |
| Cn1cc2c(nc(NCCOOCCCCNC(=S)Nc3ccc(-c4c5ccc(=O)cc-5oc5cc(O)ccc45)c(C(=O)O)c3)n3nc(-c4ccco4)nc23)n1 [Compound 5] | – | – | 9390 ± 1730 | (0%) | – | – | – | (30 ± 6%) | – |
| Cn1cc2c(nc(NCCCOCCOOCCCCCNC(=S)Nc3ccc(-c4c5ccc(=O)cc-5oc5cc(O)ccc45)c(C(=O)O)c3)n3nc(-c4ccco4)nc23)n1 [Compound 6] | 6010 ± 420 | – | 7090 ± 370 | (0%) | – | – | – | – | – |
| C#CCCCC(=O)Nc1nc2ccc(Cl)cc2c2nc(-c3ccco3)nn12 [Compound 8, N-(9-Chloro-2-(furan-2-yl)-[1,2,4]triazolo[1,5-c]quinazolin-5-yl)hex-5-ynamide] | 51 ± 10 | 170 ± 40 | 33.5 ± 10.1 | – | – | – | – | – | – |
| Cn1cc2c(nc(NC(=O)Nc3ccc(CC(=O)O)cc3)n3nc(-c4ccco4)nc23)n1 [Compound 11, 2-(4-(3-(2-(furan-2-yl)-8-methyl-8H-pyrazolo[4,3-e][1,2,4]triazolo[1,5-c]pyrimidin-5-yl)ureido)phenyl)acetic acid] | – | – | – | – | 1010 | 128 ± 26 | – | – | – |
| Cn1cc2c(nc(NC(=O)Nc3ccc(CC(=O)NCCCNC(=O)OC(C)(C)C)cc3)n3nc(-c4ccco4)nc23)n1 [Compound 12, tert-Butyl (3-(2-(4-(3-(2-(furan-2-yl)-8-methyl-8H-pyrazolo[4,3-e][1,2,4]triazolo[1,5-c]pyrimidin-5-yl)ureido)phenyl)acetamido)propyl)carbamate] | – | – | – | – | 150 ± 11 | 2.75 ± 0.2 | 15% ± 5% | – | 198 to 205 °C |
| Cn1cc2c(nc(NC(=O)Nc3ccc(CC(=O)NCCCCNC(=O)OC(C)(C)C)cc3)n3nc(-c4ccco4)nc23)n1 [Compound 13, tert-Butyl (4-(2-(4-(3-(2-(furan-2-yl)-8-methyl-8H-pyrazolo[4,3-e][1,2,4]triazolo[1,5-c]pyrimidin-5-yl)ureido)phenyl)acetamido)butyl)carbamate] | – | – | – | – | 304 ± 20 | 3.46 ± 0.33 | 2% ± 2% | – | 186 to 193 °C |
| Cn1cc2c(nc(NC(=O)Nc3ccc(CC(=O)NCCCCCNC(=O)OC(C)(C)C)cc3)n3nc(-c4ccco4)nc23)n1 [Compound 14, tert-Butyl (5-(2-(4-(3-(2-(furan-2-yl)-8-methyl-8H-pyrazolo[4,3-e][1,2,4]triazolo[1,5-c]pyrimidin-5-yl)ureido)phenyl)acetamido)pentyl)carbamate] | – | – | – | – | 376 ± 96 | 4.47 ± 1.06 | 14% ± 3% | – | – |
| Cn1cc2c(nc(NC(=O)Nc3ccc(CC(=O)NCCOCCOCCNC(=O)OC(C)(C)C)cc3)n3nc(-c4ccco4)nc23)n1 [Compound 15, tert-Butyl (2-(2-(2-(2-(4-(3-(2-(furan-2-yl)-8-methyl-8H-pyrazolo[4,3-e][1,2,4]triazolo[1,5-c]pyrimidin-5-yl)ureido)phenyl)acetamido)-ethoxy)ethoxy)ethyl)carbamate] | – | – | – | – | 456 ± 96 | 74.8 ± 10.1 | 7% ± 5% | – | 157 to 165 °C |
| Cn1cc2c(nc(NC(=O)Nc3ccc(CC(=O)NCCCOCCOCCOCCCNC(=O)OC(C)(C)C)cc3)n3nc(-c4ccco4)nc23)n1 [Compound 16, tert-Butyl (1-(4-(3-(2-(furan-2-yl)-8-methyl-8H-pyrazolo[4,3-e][1,2,4]triazolo[1,5-c]pyrimidin-5-yl)ureido)phenyl)-2-oxo-7,10,13-trioxa-3-azahexadecan-16-yl)carbamate] | – | – | – | – | 327 ± 32 | 82.4 ± 20.1 | 11% ± 5% | – | 151 to 158 °C |
| Cn1cc2c(nc(NC(=O)Nc3ccc(CC(=O)NCCCN)cc3)n3nc(-c4ccco4)nc23)n1.O=C(O)C(F)(F)F [Compound 17, N-(3-aminopropyl)-2-(4-(3-(2-(furan-2-yl)-8-methyl-8H-pyrazolo[4,3-e][1,2,4]triazolo[1,5-c]pyrimidin-5-yl)ureido)phenyl)acetamide trifluoroacetate salt] | – | – | – | – | 175 ± 27 | 8.06 ± 2.47 | 9% ± 3% | – | 142 to 150 °C |
| Cn1cc2c(nc(NC(=O)Nc3ccc(CC(=O)NCCCCN)cc3)n3nc(-c4ccco4)nc23)n1.O=C(O)C(F)(F)F [Compound 18, N-(4-Aminobutyl)-2-(4-(3-(2-(furan-2-yl)-8-methyl-8H-pyrazolo[4,3-e][1,2,4]triazolo[1,5-c]pyrimidin-5-yl)ureido)phenyl)acetamide trifluoroacetate salt] | – | – | – | – | 172 ± 33 | 6 ± 1.29 | 4% ± 1% | – | 167 to 173 °C |
| Cn1cc2c(nc(NC(=O)Nc3ccc(CC(=O)NCCCNC(=S)Nc4ccc5c(c4)C(=O)OC54c5ccc(O)cc5Oc5cc(O)ccc54)cc3)n3nc(-c4ccco4)nc23)n1 [Compound 22, N-(3-(3-(Fluorescein-5-yl)thioureido)propyl)-2-(4-(3-(2-(furan-2-yl)-8-methyl-8H-pyrazolo[4,3-e][1,2,4]triazolo[1,5-c]pyrimidin-5-yl)ureido)phenyl)acetamide] | – | – | – | – | 110 ± 18 | 104 ± 44 | 27% ± 1% | – | – |

Continued, in another order:

| Ki (hA2AAR; [1]) [nM] | Ki (hA1 AR; Table 1) [nM] | Ki (hA3AR; [2]) [nM] | A1 % inhibition (hA1 AR; [3]) | Ki (hA2AAR; Table 3) [nM] | Ki (hA3AR; Table 3) [nM] | A1 % inhibition (hA1 AR; Table 3) | Structure (SMILES) | A2A % Inhibition (hA2AAR; [3]) | melting point |
| --- | --- | --- | --- | --- | --- | --- | --- | --- | --- |
| – | – | – | – | 60.4 ± 6.2 | 73.6 ± 14.7 | 28% ± 8% | Cn1cc2c(nc(NC(=O)Nc3ccc(CC(=O)NCCCCNC(=S)Nc4ccc5c(c4)C(=O)OC54c5ccc(O)cc5Oc5cc(O)ccc54)cc3)n3nc(-c4ccco4)nc23)n1 [Compound 23, N-(4-(3-(Fluorescein-5-yl)thioureido)butyl)-2-(4-(3-(2-(furan-2-yl)-8-methyl-8H-pyrazolo[4,3-e][1,2,4]triazolo[1,5-c]pyrimidin-5-yl)ureido)phenyl)acetamide] | – | – |
| – | – | – | – | 106 ± 14 | 96.7 ± 26.9 | 21% ± 5% | Cn1cc2c(nc(NC(=O)Nc3ccc(CC(=O)NCCCCCNC(=S)Nc4ccc5c(c4)C(=O)OC54c5ccc(O)cc5Oc5cc(O)ccc54)cc3)n3nc(-c4ccco4)nc23)n1 [Compound 24, N-(5-(3-(Fluorescein-5-yl)thioureido)pentyl)-2-(4-(3-(2-(furan-2-yl)-8-methyl-8H-pyrazolo[4,3-e][1,2,4]triazolo[1,5-c]pyrimidin-5-yl)ureido)phenyl)acetamide] | – | – |
| – | – | – | – | 95.7 ± 25.4 | 137 ± 28 | 29% ± 1% | Cn1cc2c(nc(NC(=O)Nc3ccc(CC(=O)NCCOCCOCCNC(=S)Nc4ccc5c(c4)C(=O)OC54c5ccc(O)cc5Oc5cc(O)ccc54)cc3)n3nc(-c4ccco4)nc23)n1 [Compound 25, N-(2-(2-(2-(3-(Fluorescein-5-yl)thioureido)ethoxy)ethoxy)ethyl)-2-(4-(3-(2-(furan-2-yl)-8-methyl-8H-pyrazolo[4,3-e][1,2,4]triazolo[1,5-c]pyrimidin-5-yl)ureido)phenyl)acetamide] | – | – |
| – | – | – | – | 91.5 ± 20 | 207 ± 95 | 32% ± 6% | Cn1cc2c(nc(NC(=O)Nc3ccc(CC(=O)NCCCOCCOCCOCCCNC(=S)Nc4ccc5c(c4)C(=O)OC54c5ccc(O)cc5Oc5cc(O)ccc54)cc3)n3nc(-c4ccco4)nc23)n1 [Compound 26, N-(1((Fluorescein-5-yl)amino)-1-thioxo-6,9,12-trioxa-2-azapentadecan-15-yl)-2-(4-(3-(2-(furan-2-yl)-8-methyl-8H-pyrazolo[4,3-e][1,2,4]triazolo[1,5-c]pyrimidin-5-yl)ureido)phenyl)acetamide] | – | – |
| – | – | – | – | 133 ± 37 | 11 ± 0.6 | 55% ± 4% | C#CCCC(=O)Nc1nc2nn(C)cc2c2nc(-c3ccco3)nn12 [Compound 36, N-(2-(furan-2-yl)-8-methyl-8H-pyrazolo[4,3-e][1,2,4]triazolo[1,5-e]pyrimidin-5-yl)pent-4-ynamide] | – | – |
| – | – | – | – | 199 | 4.11 ± 0.93 | – | C#CCCCC(=O)Nc1nc2nn(C)cc2c2nc(-c3ccco3)nn12 [Compound 37, N-(2-(furan-2-yl)-8-methyl-8H-pyrazolo[4,3-e][1,2,4]triazolo[1,5-c]pyrimidin-5-yl)hex-5-ynamide] | – | 210 to 216 °C (dec.) |
| – | – | – | – | 90 | 31.8 | – | Cn1cc2c(nc(NC(=O)CCCc3cn(CCCCCCNC(=O)c4ccc(-c5c6ccc(=N)c(S(=O)(=O)O)c-6oc6c(S(=O)(=O)O)c(N)ccc56)c(C(=O)O)c4)nn3)n3nc(-c4ccco4)nc23)n1 [MRS5763] | – | – |
